Assay results published in patent publication US20180065940A1, “METAL-BINDING COMPOUNDS, HETEROLOGOUS PRODUCTION AND USES THEREOF” (The Research Foundation for The State University of New York, priority 2015, published 2018).

Experiments:
[1] = Rust removal experiments (1,10-phenanthroline assay)
Procedure: Rust Removal Experiments. A rusted carbon steel tube was machine cut into U-shaped pieces (through the University at Buffalo School of Engineering and Applied Sciences Engineering Machine Shop) and each piece, after cleaning with acetone and rinsing with DI water, immersed in 10 mL Millipore water. Samples were then mixed with 250 μL of methanol or final extracts (about 0.2 mg of Ybt) derived from the larger-scale negative control or Ybt production cultures. Samples were then allowed to incubate at 30° C. with shaking for 2 hours.
Rust removal was quantified through a modification of the 1,10-phenanthroline assay to enable detection using a 96-well plate format. To each well, 40 μL of 0.3% (wt/vol) 1,10-phenanthroline, 40 μL of 1% (wt/vol) hydroxylamine hydrochloride, and 40 μL of 0.1 M ammonium acetate were mixed. […] Absorbance was measured using a microplate reader at a wavelength of 510 nm with concentration measurements determined from a calibration curve of Fe^3+ (Sigma-Aldrich).
To assess total rust removal, metal samples recovered after incubation were washed with water and immersed in a solution of 1% (wt/vol) oxalic acid for 30 minute to remove the remaining rust on the metal surface. Upon quantifying the amount of Fe^3+ removed using the 96-well plate method introduced above, percent rust removal was calculated using the following equation: […]

[2] = Gold-binding assay (LC-MS); conditions: 1 mM Au(III), crude extract 2-5 μM, 2 hours at 22° C.
Procedure: Gold-binding Assay To test Ybt or analog gold binding capability, HAuCl4 was used to generate a solution of 1 mM Au(III) in de-ionized water. To this solution, crude extract of Ybt or analog (from samples prepared without FeCl3 addition) was added at a final concentration of 2-5 μM. After incubation for 2 hours at 22° C., the solution was analyzed by LC-MS.

[3] = pH 2 (10 mM HCl)
Procedure: Based upon the pH removal profiles for Ybt-XAD, the column was tested for regeneration (FIG. 27). […] To select the degree of pH reduction, the Ybt compound was tested for degradation over log-fold differences in HCl concentrations (FIG. 31).

[4] = Copper removal experiments with Ybt-modified XAD beads (Zincon assay); conditions: fresh beads in three successive applications
Procedure: (§1) Copper Removal Experiments. Copper and zinc removal assessment was completed using the Zincon assay (Sabel et al. 2010. Anal Biochem 397:218-226). Briefly, 40 μL samples (diluted if necessary to keep concentrations less than 4 ppm) were added to 200 μL of borate buffer (65.8 mM; pH=9), and the assay was initiated by adding 10 μL of Zincon solution (1.6 mM). After a five-minute incubation at 20° C., absorbance at 610 nm was measured. Standard curves for Zn and Cu were made using pure salts (Sigma-Aldrich) to allow quantification. The initial measurement provides total metal concentration (zinc and copper together) while the second measurement allows determination of the copper concentration. By subtracting the second reading from the first, zinc concentration is determined. […]
(§2) To test copper removal, 800 μL of copper solution was added to 40 mg of Ybt-modified XAD beads (or controls) and incubated at 30° C. with shaking (for sheep blood and 50% FBS RPMI samples, this temperature was 22° C.). […] The copper content of the original mixture solution and the liquid resulting from the bead washing steps was measured using the Zincon assay described above. […] The removal ability was calculated using the following equation: […]

[5] = test system: red blood cell (RBC) membranes; conditions: 0.03 mg/mL Ybt or 50 mg/mL Ybt-XAD beads in PBS, 37° C.
Procedure: To assess potential disruption of red blood cell (RBC) membranes by Ybt samples, a hemolysis assay was modified from a protocol previously described (Jones et al. 2014. Proc Natl Acad Sci USA 111:12360-12365). Briefly, a 5% RBC solution was prepared by washing sheep blood (HemoStat Laboratories) with PBS until the supernatant became clear. Next, 100 μL of purified 5% RBC solution was incubated with 900 μL of 0.03 mg/mL crude extract Ybt samples (or controls) or 50 mg/mL Ybt-complexed XAD beads (or controls) in PBS over time at 37° C. Triton-X 100 (1% solution) was used to construct a blood lysis standard curve by altering the amount of blood added to each respective sample. For example, for 50 and 100% lysis, 50 and 100 μL of purified 5% RBC solution was mixed with 1% Triton-X (to 1 mL). PBS was used to generate negative controls. Samples were centrifuged and hemolysis quantified by measuring supernatant at 541 nm and comparing to the % blood lysis standard curve.

[6] = Zinc removal with Ybt-modified XAD beads (Zincon assay); conditions: FIG. 14D
Procedure: as §1, §2

[7] = Packed-bed removal from zinc and copper solutions; conditions: pH 6.5
Procedure: Copper removal experiments: To test copper removal, 10 grams of each resin (XAD, Chelex 100, and Ybt-XAD) were packed into a 2.5×10 cm glass chromatography column (Bio-Rad). The column was equilibrated with 10 bed volumes of Millipore water before loading the metal solution. The metal solution (˜5 ppm zinc and ˜1 ppm copper; pH adjusted with dilute HCl or NaOH) was pumped (LMI Milton Roy dosing pump) into the column with a continuous flow rate of 1 L/hr. Samples were collected every 30 min. The percent copper or zinc removal was calculated using the following formula: [(Ci−Cf)/Ci]×100, where Ci is the initial copper (or zinc) concentration and Cf is the final concentration. Average selectivity was defined as the ratio of average copper removal (%) to the average zinc removal (%) over the course of the experiment.

RAW264.7 cells = test system: RAW264.7 cells
Procedure: Biological Interaction Assays. Cytotoxicity resulting from Ybt samples was determined by the 3-(4, 5-dimethylthiazol-2-yl)-diphenyltetrazolium bromide (MTT) colorimetric assay. Three distinct cell lines (RAW264.7 [macrophage; provided by Dr. Terry Connell, Department of Microbiology and Immunology, University at Buffalo], HeLa [epithelial; provided by Dr. Stelios Andreadis, Department of Chemical and Biological Engineering, University of Buffalo], and NIH3T3 [fibroblast; ATCC]) were cultured in T75 flasks at 37° C./5% CO2. RAW264.7 cells were maintained in medium prepared as follows: 50 mL of FBS (heat inactivated), 5 mL of 100 mM MEM sodium pyruvate, 5 mL of 1 M HEPES buffer, 5 mL of penicillin/streptomycin solution, and 1.25 g of D-(+)-glucose added to 500 mL RPMI-1640 and filter sterilized. HeLa and NIH3T3 cells were maintained in Dulbecco's Modified Eagle Medium (DMEM; Gibco BRL, Grand Island, N.Y.) supplemented with 10% (v/v) FBS (GIBCO) and 1% (v/v) Antibiotic-Antimycotic (A/A; Gibco). […]

Which “rust removed, of total rust” value ([1]; about 0.2 mg of Ybt, 30° C., 2 hours) does the source give for CC(C)(C1=N[C@@](C)(C(=O)O)CS1)[C@H](O)[C@@H]1CSC([C@H]2CSC(c3ccccc3O)=N2)N1 (stereo partly drawn) [Ybt, yersiniabactin] here?
The value was “about 20%”.

What about the “rust removed relative to the commercial control” value ([1]; relative to commercial product Rust-Oleum) of the same molecule?
The value was “about 40%”.

And the “gold binding / complex formation” value [2]?
The value was “lack of complexation”.

And the “stability (degradation over time)” value [3]?
Its value is “stability”.

And the “copper removal after repeated extractions” value [4]?
The value was ~100%.

And the RBC hemolysis [5]?
The RBC hemolysis was “minimal concerns”.

And the zinc removal capability [6]?
The zinc removal capability was “no discernible capability to remove zinc”.

What about the “zinc binding in fixed bed” value [7] of the same molecule?
Its value is “not observed”.

And the “immunogenicity via NO production from macrophage cells” value (RAW264.7 cells)?
The value was “minimal concerns”.
